In ChEMBL document CHEMBL5113376, “Antimalarial application of quinones: A recent update” (Eur J Med Chem, 2021):
Values after ≈ are worked out from the molar mass of the structure shown. Values belong to the molecule of their own block, whether it stands above or below them.

Legend:
HEK293 = assay: Cytotoxicity against HEK293 cells incubated for 48 hrs by MTT assay; format: functional; conditions: Homo sapiens
Plasmodium falciparum [1] = assay: Antimalarial activity against Plasmodium falciparum 3D7 infected in human erythrocytes; format: functional, organism-based; conditions: 3D7, Erythrocyte
Plasmodium falciparum [2] = assay: Antimalarial activity against Chloroquine resistant blood stage Plasmodium falciparum clone W2; format: functional, organism-based
Plasmodium berghei [3] = assay: In vivo antiplasmodial activity against Plasmodium berghei infected in Swiss mouse assessed as reduction of parasitaemia at 100 mg/kg, po for 3 days; format: functional; design: scale not given: the % may be the effect or the level left; conditions: time 3 day
Plasmodium falciparum [4] = assay: Antimalarial activity against Plasmodium falciparum 3D7 measured after 24 hrs by hypoxanthine based scintillation counting analysis; format: functional; conditions: read-out: ED50 (the source's name)
[5] = Selectivity index, ratio of CC50 for african green monkey Vero cells to IC50 for Chloroquine resistant Plasmodium falciparum K1; format: toxicity; conditions: read-out: Ratio CC50/IC50
Plasmodium falciparum [6] = assay: Antimalarial activity against chloroquine resistant Plasmodium falciparum K1 incubated for 72 hrs by SYBR green staining based fluorescence reader method; format: functional, organism-based; conditions: K1, 72 h
Plasmodium falciparum [7] = assay: Antimalarial activity against chloroquine […] Plasmodium falciparum 3D7 incubated for 72 hrs by SYBR green staining based fluorescence reader method; format: functional, organism-based; conditions: 3D7, 72 h
[8] = Cytotoxicity against African green monkey Vero cells; format: toxicity, cell-based; conditions: chlorocebus sabaeus
Plasmodium falciparum [9] = assay: Antimalarial activity against multi-drug resistant Plasmodium falciparum K1; format: functional, organism-based
Plasmodium falciparum [10] = assay: In vivo antimalarial activity against Plasmodium falciparum 3D70087/N9 infected in humanized mouse model assessed as reduction in parasitemia administered orally for 4 days measured on day 7 relative to control; format: functional; design: scale not given: the % may be the effect or the level left; conditions: route po; time 7 day
Plasmodium falciparum [11] = assay: Antimalarial activity against drug resistant Plasmodium falciparum K1; format: functional, organism-based
Plasmodium falciparum [12] = assay: Antimalarial activity against Plasmodium falciparum RKL-2; format: functional, organism-based
Plasmodium falciparum [13] = assay: Antimalarial activity against Plasmodium falciparum 3D7 assessed as inhibition of malarial growth by measuring dead rings/schizonts at 50 ug/ml relative to control; format: functional
Plasmodium falciparum [14] = assay: Antimalarial activity against Plasmodium falciparum 3D7; format: functional, organism-based
Plasmodium falciparum [15] = assay: Antimalarial activity against Plasmodium falciparum RKL-2 assessed as inhibition of malarial growth by measuring dead rings/schizonts at 50 ug/ml relative to control; format: functional
Plasmodium berghei [16] = assay: In vivo antiplasmodial activity against Plasmodium berghei ANKA infected in CD-1 mouse assessed as decrease in parasitaemia at 50 mg/kg, ip measured after 7 days relative to control; format: functional; design: scale not given: the % may be the effect or the level left; conditions: time 7 day
Plasmodium falciparum [17] = assay: Antimalarial activity against Plasmodium falciparum Dd2 by SYBR green method; format: functional, organism-based
Plasmodium berghei [18] = assay: In vivo antiplasmodial activity against Plasmodium berghei ANKA infected in CD-1 mouse assessed as decrease in parasitaemia at 50 mg/kg, ip measured after 4 days relative to control; format: functional; design: scale not given: the % may be the effect or the level left; conditions: time 4 day
Plasmodium falciparum [19] = assay: Potency index, ratio of chloroquine IC50 to compound IC50 for antimalarial activity against Plasmodium falciparum Dd2; format: functional
Plasmodium falciparum [20] = assay: Antimalarial activity against Plasmodium falciparum; format: functional, organism-based
Plasmodium falciparum [21] = assay: Antimalarial activity against chloroquine resistant Plasmodium falciparum RKL-9; format: functional, organism-based
Plasmodium falciparum [22] = assay: Antimalarial activity against chloroquine sensitive Plasmodium falciparum RKL-2; format: functional, organism-based
Plasmodium falciparum [23] = assay: Antiplasmodial activity against Chloroquine resistant plasmodium falciparum FCR-3; format: functional, organism-based
[24] = Selectivity index, ratio of IC50 for human MDA-MB-231 cells to IC50 for Chloroquine resistant Plasmodium falciparum FCR-3; format: toxicity; conditions: read-out: Ratio IC50
Plasmodium falciparum [25] = assay: Antiplasmodial activity against Plasmodium falciparum W2 assessed as inhibition of parasite growth after 48 hrs by pLDH assay; format: functional, organism-based; conditions: W2, 48 h
Plasmodium falciparum [26] = assay: Antimalarial activity against Plasmodium falciparum TM90C2B (2007); format: functional, organism-based
Plasmodium berghei [27] = assay: Antimalarial activity against Plasmodium berghei; format: functional, organism-based
Plasmodium falciparum [28] = assay: Antimalarial activity against Plasmodium falciparum TM90C2B (1995); format: functional, organism-based
Plasmodium falciparum [29] = assay: Antimalarial activity against Plasmodium falciparum TM91C235; format: functional, organism-based
Plasmodium falciparum [30] = assay: Antimalarial activity against Plasmodium falciparum D6; format: functional, organism-based
Plasmodium falciparum [31] = assay: Antimalarial activity against Plasmodium falciparum W2; format: functional, organism-based
Plasmodium falciparum [32] = assay: Antimalarial activity against chloroquine resistant Plasmodium falciparum RKL-9 by Giemsa staining method; format: functional, organism-based
Plasmodium falciparum [33] = assay: Antimalarial activity against chloroquine sensitive Plasmodium falciparum RKL-2 by Giemsa staining method; format: functional, organism-based
Plasmodium falciparum [34] = assay: Antimalarial activity against Plasmodium falciparum Dd2 by H-hypoxanthine incorporation based assay; format: functional, organism-based
Plasmodium falciparum [35] = assay: Antimalarial activity against Plasmodium falciparum 3D7 by H-hypoxanthine incorporation based assay; format: functional, organism-based
Plasmodium berghei [36] = assay: In vivo antiplasmodial activity against Plasmodium berghei infected in mouse assessed as reduction of parasitaemia at 50 mg/kg/day, ip for 4 days relative to control; format: functional; design: scale not given: the % may be the effect or the level left; conditions: time 4 day
Plasmodium berghei [37] = assay: In vivo antiplasmodial activity against Plasmodium berghei infected in mouse assessed as increase in mean survival time at 50 mg/kg/day, ip for 4 days (reference value: 4 to 6 days); format: functional; conditions: time 4 day
Plasmodium falciparum [38] = assay: Antiplasmodial activity against Plasmodium falciparum K1; format: functional, organism-based
Plasmodium berghei [39] = assay: In vivo antiplasmodial activity against Plasmodium berghei infected in mouse assessed as reduction of parasitaemia at 100 mg/kg/day, po for 4 days relative to control; format: functional; design: scale not given: the % may be the effect or the level left; conditions: time 4 day
Plasmodium falciparum [40] = assay: Antimalarial activity against Plasmodium falciparum W2 by 96-well microtitre plate method based scintillation counting analysis; format: functional, organism-based
Plasmodium falciparum [41] = assay: Antimalarial activity against Plasmodium falciparum by 96-well microtitre plate method based scintillation counting analysis; format: functional, organism-based
Plasmodium falciparum [42] = assay: Antiplasmodial activity against Plasmodium falciparum 3D7 infected in human erythrocytes assessed as growth inhibition; format: functional, organism-based; conditions: 3D7, Erythrocyte
Plasmodium falciparum [43] = assay: Antimalarial activity against Plasmodium falciparum NF54 by 96-well microtitre plate method based scintillation counting analysis; format: functional, organism-based

- IC50 (Plasmodium falciparum [1]): 443 nM
Compound: O=C1C(O)=C(Cc2ccccc2)C(=O)c2ccccc21
- CC50 (HEK293): 54600 nM

Compound: O=C1C(O)=C(CN2CC3CCC2CC3)C(=O)c2ccccc21
- IC50 (Plasmodium falciparum [2]): 1300 nM
- Activity (Plasmodium berghei [3]): <=63%

Compound: CCCN(CCC)CC1=C(O)C(=O)c2ccccc2C1=O
- IC50 (Plasmodium falciparum [2]): 1900 nM
- Activity (Plasmodium berghei [3]): <=63%

- EC50 (Plasmodium falciparum [4]): 0.537 µg/mL (≈ 1.02 µM)
Compound: Cc1cc(O)c2c(c1)C(O)(c1ccc3c(c1O)C(=O)c1c(O)cc(C)c(O)c1C3=O)c1cccc(O)c1C2=O (stereo not given)

Compound: Cc1cc(O)c2c(c1)C(=O)c1cc(O)c(CN3CCCCC3)c(O)c1C2=O
- selectivity ratio [5]: 315
- IC50 (Plasmodium falciparum [6]): 2280 nM
- IC50 (Plasmodium falciparum [7]): 2740 nM
- CC50 [8]: 782000 nM

Compound: CSC1=CC2=C(C(=O)c3ccc([C@H]4C[C@@H](O)[C@H](O)[C@@H](C)O4)c(O)c3C2=O)[C@@]2(O)C(=O)C[C@](C)(O)C[C@@]12O
- IC50 (Plasmodium falciparum [9]): 0.0534 µg/mL (≈ 0.1 µM)

Compound: Cc1n(C(C)C)c2c([n+]1C(C)C)C(=O)c1ccccc1C2=O.[Br-]
- Activity (Plasmodium falciparum [10]): 90%

Compound: CCCn1c2c([n+](C(C)C)c1C)C(=O)c1ccccc1C2=O
- IC50 (Plasmodium falciparum [11]): 3.2 nM

- IC50 (Plasmodium falciparum [12]): 1.17 µg/mL
- IC50 (Plasmodium falciparum [14]): 0.411 µg/mL
Compound: O=C1C(O)=C(C(c2ccccc2O)N2CCCC2)C(=O)c2ccccc21 (stereo not given)
- inhibition at 50 µg/mL (Plasmodium falciparum [13]): 72.5%
- inhibition at 50 µg/mL (Plasmodium falciparum [15]): 70%

- IC50 (Plasmodium falciparum [17]): 42 nM
Compound: CC1=C(Cc2ccc(NC(=O)OC(C)(C)C)cc2)C(=O)c2ccccc2C1=O
- Activity (Plasmodium berghei [16]): 81.8%
- Activity (Plasmodium berghei [18]): 75.5%
- Ratio IC50 (Plasmodium falciparum [19]): 3

- IC50 (Plasmodium falciparum [12]): 1390 nM
- IC50 (Plasmodium falciparum [14]): 475 nM
Compound: O=C1C(O)=C(C(Nc2cccc([N+](=O)[O-])c2)c2ccc([N+](=O)[O-])cc2)C(=O)c2ccccc21 (stereo not given)
- inhibition at 50 µg/mL (Plasmodium falciparum [13]): 72.5%
- inhibition at 50 µg/mL (Plasmodium falciparum [15]): 70%

- IC50 (Plasmodium falciparum [20]): 2000 nM
Compound: Cc1oc2c(c1C(=O)NC(CCC(N)=O)C(=O)O)C(=O)c1ccccc1C2=O (stereo not given)

Compound: O=C1C(O)=C(Nc2ccc(O)c(CN3CCOCC3)c2)C(=O)c2ccccc21
- IC50 (Plasmodium falciparum [21]): 0.993 µg/mL (≈ 2.61 µM)
- IC50 (Plasmodium falciparum [22]): 0.391 µg/mL (≈ 1.03 µM)

Compound: CC(C)=CCC/C(=C/CC/C(C)=C/CCc1ccc2c(c1)C(=O)C=C(C)C2=O)C(=O)O
- IC50 (Plasmodium falciparum [23]): 5400 nM
- selectivity ratio [24]: 443

Compound: O=C1c2ccccc2C(=O)c2oc(Cc3ccccc3)cc21
- IC50 (Plasmodium falciparum [25]): 1500 nM

- IC50 (Plasmodium falciparum [26]): 193 nM
- IC50 (Plasmodium berghei [27]): 246 nM
- IC50 (Plasmodium falciparum [28]): 234 nM
- IC50 (Plasmodium falciparum [29]): 229 nM
- IC50 (Plasmodium falciparum [30]): 73 nM
- IC50 (Plasmodium falciparum [31]): 191 nM
Compound: CCCCCC[C@H](C)CC1=C(O)C(=O)c2c(C)cccc2C1=O

Compound: O=C1C(O)=C(NCCNc2ccnc3cc(Cl)ccc23)C(=O)c2ccccc21
- IC50 (Plasmodium falciparum [32]): 0.684 µg/mL (≈ 1.74 µM)
- IC50 (Plasmodium falciparum [33]): 0.391 µg/mL (≈ 0.993 µM)

Compound: CCCNCc1cc(NC2=C(O)C(=O)c3ccccc3C2=O)ccc1O
- IC50 (Plasmodium falciparum [21]): 2.92 µg/mL (≈ 8.29 µM)
- IC50 (Plasmodium falciparum [22]): 0.453 µg/mL (≈ 1.29 µM)

- IC50 (Plasmodium falciparum [34]): 69 nM
- IC50 (Plasmodium falciparum [35]): 67 nM
Compound: CC1=C(Cc2ccncc2)C(=O)c2ccccc2C1=O

Compound: O=C(O)c1cc2c(o1)C(=O)C1=C(C2=O)S(=O)(=O)C=CN1
- Activity (Plasmodium berghei [36]): 85.7%
- Time (Plasmodium berghei [37]): 9 days
- IC50 (Plasmodium falciparum [38]): 120 nM
- Activity (Plasmodium berghei [39]): 47%

- IC50 (Plasmodium falciparum [20]): 50 nM
Compound: CNCCCCNCCCNC(=O)c1c(C)oc2c1C(=O)c1ccccc1C2=O

Compound: O=C1C(O)=C([C@H]2CC[C@H](c3ccc(Cl)cc3)CC2)C(=O)c2ccccc21 [ATOVAQUONE]
- CC50 (HEK293): 49 nM
- IC50 (Plasmodium berghei [27]): 19.7 nM
- IC50 (Plasmodium falciparum [30]): 0.34 nM
- IC50 (Plasmodium falciparum [31]): 1 nM

Compound: CCN(CC)CCCC(C)Nc1ccnc2cc(Cl)ccc12 (stereo not given) [CHLOROQUINE]
- Activity (Plasmodium berghei [16]): 76.8%
- Activity (Plasmodium berghei [18]): 86.3%
- CC50 [8]: 227000 nM

- IC50 (Plasmodium falciparum [40]): 7.53 µg/mL (≈ 31.3 µM)
Compound: C=C(C)C1CC2=C(O1)C(=O)c1ccccc1C2=O (stereo not drawn) [DEHYDROISO-ALPHA-LAPACHONE]

- IC50 (Plasmodium falciparum [41]): 3.29 µg/mL (≈ 8.79 µM)
Compound: Cc1cc(O)c2c(c1)C(=O)C(c1c(C)cc3c(c1O)C(=O)C=CC3=O)=CC2=O [DIOSPYRIN]

Compound: COC1=C2C[C@@H](C)C[C@H](OC)[C@H](O)[C@@H](C)/C=C(\C)[C@H](OC(N)=O)[C@@H](OC)/C=C\C=C(/C)C(=O)NC(=CC1=O)C2=O [GELDANAMYCIN]
- IC50 (Plasmodium falciparum [42]): 20 nM

Compound: COc1cc(O)c(-c2c(C)cc(O)c3c2C(=O)c2cccc(O)c2C3=O)c(O)c1C(C)=O [KNIPHOLONE]
- IC50 (Plasmodium falciparum [43]): 1700 nM
